# Reference: the METLIN SMRT retention time set (Domingo-Almenara et al. 2019)
# Assay: gradient 5% acetonitrile 3 min, to 50% in 2 min, to 85% in 15 min, held 3 min, 100 µL/min
# Details: column: Zorbax Extend-C18 2.1 x 50 mm; eluents: water / acetonitrile, 0.1% formic acid
# Method in brief: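 The mobile phases were water and acetonitrile, each with 0.1% formic acid, pumped at 100 μL/min through a Zorbax Extend-C18 column (2.1 × 50 mm, 1.8 μm). Pure standards were injected as mixtures of ~100 molecules and detected by a quadrupole time-of-flight mass spectrometer in positive and negative ionization mode. Retention time came from computationally picked adduct peaks, each inspected by hand.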
row,RP-LC retention time [s],Compound
1,832,Cc1cccc(CC(=O)N2C[C@@H]3C[C@H]2C[C@@H]3NS(=O)(=O)c2ccccc2)c1
2,1010,CC(C)CCN1C(=O)CC[C@]2(C(=O)N3CCN(c4ccc(F)cc4)CC3)CCCC[C@@H]12
3,735,Cc1onc(C(=O)N2CCc3c(c(-c4nncn4CC4CC4)nn3C)C2)c1Cn1cc(Cl)cn1
4,588,O=C(c1cc(-c2ccncc2)n[nH]1)N1CCN(C(=O)C2CCCC2)CC1
5,774,CC(C)(C)CC(=O)N1CCCC(c2nc(CNC(=O)C3CCC3)cs2)C1 (stereo unspecified)
6,686,CCCn1ncc(N2CCC(C(=O)NCc3cccs3)CC2)cc1=O
7,800,COc1ccc(C(=O)N2CCC3(CC2)NC(=O)c2ccc(Cl)cc2N3)c(C)c1
8,648,CN(C)CCNc1ncnc2c1cnn2-c1cccc(Cl)c1
9,654,CC1CCCN(Cc2nc(Cn3ccn4nc(-c5ccccc5)cc4c3=O)no2)C1 (stereo unspecified)
10,1000,COc1ccc(Br)c(C(=O)N2CC(c3nc(-c4cccc(Cl)c4)no3)C2)c1
11,584,CCc1ccccc1NC(=O)Cn1c(N)nc(C)cc1=O
12,701,Cc1cccc(NC(=O)Cn2ccc3sccc3c2=O)c1
13,895,CC(=O)N1c2ccc(S(=O)(=O)N3CCC(C(=O)Nc4cccc(Cl)c4C)CC3)cc2CC1C (stereo unspecified)
14,906,COc1cc(C(=O)N2CCCC2c2nc(-c3ccccc3Cl)no2)cc(OC)c1OC (stereo unspecified)
15,822,CC(=O)c1c(C)oc2ccc(NS(=O)(=O)c3cccc([N+](=O)[O-])c3)cc12
16,592,COc1ccc(-n2nnc(C(=O)O)c2-c2ccncc2)cc1
17,888,CCC(C)NC(=O)NC1CCN(C2=NS(=O)(=O)C(c3ccc(C)c(C)c3)=C2C)CC1 (stereo unspecified)
18,718,O=C(Cn1nc2c3sc(N4CCCC4)nc3ncn2c1=O)Nc1ccc(F)cc1
19,936,CC(C)c1ccc2occ(CC(=O)N(Cc3ccc(N(C)C)cc3)C3CCS(=O)(=O)C3)c2c1 (stereo unspecified)
20,671,Cc1cnc(CC2CCN(S(=O)(=O)c3cccc(F)c3)C2)n1C(C)C (stereo unspecified)
21,598,CC(C)NC(=O)N1CCCN(S(C)(=O)=O)CC1
22,985,COc1ccc(Cc2nnc(SCC(=O)Nc3nc(-c4ccccc4)cs3)o2)cc1

row,RP-LC retention time [s],Compound
1,879,CN(C)c1ccc(-c2nc3cnccn3c2Nc2cccc(Cl)c2)cc1
2,700,Cc1ccc(-c2nnc(C)c(NCc3cccs3)n2)cc1
3,556,Cc1cc(N2CCN(C)CC2)nc2ccc(NC(=S)N3CCCCCC3)cc12
4,636,Cc1nnc(C2CC3(CCN(Cc4ccccc4)CC3)CN2Cc2ccccc2)o1 (stereo unspecified)
5,707,CC1CCN(C(=O)c2ccc3c(=O)n4c(nc3c2)CCCC4)CC1
6,1020,CC(C)(C)NC(=O)N[C@H](C(=O)N1C[C@H]2[C@@H]([C@H]1C(=O)NC(CC1CCC1)C(=O)C(N)=O)C2(C)C)C(C)(C)C (stereo partly specified)
7,796,CCCCNC(=O)CCc1c(C)n(CC)c2nc(-c3ccccc3)nn2c1=O
8,658,Cc1nc2cc(N3CCCC(C(=O)Nc4ccc(N5CCOCC5)cc4)C3)cnc2nc1C (stereo unspecified)
9,647,CC1Cc2ccccc2N1C(=O)Cc1csc(NC(=O)c2ccc(=O)[nH]c2)n1 (stereo unspecified)
10,886,CCc1ccc(NC(=O)Cn2c(=O)n(-c3ccccc3)c(=O)c3c2cc(C)n3C)cc1
11,734,O=C(Cc1csc(NC(=O)c2cnccn2)n1)Nc1nc2ccccc2s1
12,1000,Cc1ccc(NC(=O)Cn2nc(N3CCCC3)c3ccccc3c2=O)cc1C
13,582,CC(C)n1cnc2cc(CNC(=O)Cc3ccsc3)ccc21
14,738,O=C(Cn1nc(C2CC2)cc1C(=O)N1CCCC1)NCc1ccc(F)cc1
15,753,Cc1cccc(NC(=O)C2CCN(C(=O)C3Sc4ccccc4NC3=O)CC2)c1C (stereo unspecified)
16,871,O=C1NC2(CCN(C(=O)c3ccccc3F)CC2)N=C1c1ccc(Cl)cc1
17,583,COc1ccc(-c2cc3nc(C)cc(N4CCN(c5ccccn5)CC4)n3n2)cc1OC
18,924,COc1ccc(-c2cc(C(=O)N(C)C3CCCCC3)nn2C2CCS(=O)(=O)C2)cc1 (stereo unspecified)
19,839,CCCS(=O)(=O)N1CCCN(C2=NS(=O)(=O)C(c3ccccc3)=C2C)CC1
20,896,O=C(Nc1cccc(C(F)(F)F)c1)Nc1cccn2ncnc12
21,1250,Cc1ccc(CNc2ccc(-c3nc(-c4ccc(F)cc4)no3)cn2)cc1
22,733,Cc1ccc(NC(=O)N2CCC(c3cc(N)on3)CC2)cc1F

row,RP-LC retention time [s],Compound
1,671,N#CCSc1nnc2sc3ccccc3n12
2,1070,Cc1ccc(-n2c(N3CCCC(C(=O)Nc4ccc(C)c(F)c4)C3)nc3ccsc3c2=O)cc1 (stereo unspecified)
3,731,Cc1cc(C)cc(NS(=O)(=O)c2cc(-c3[nH]ncc3C(=O)N3CCOCC3)oc2C)c1
4,1080,COC(=O)c1cc(C2CC2)nc2c1c(=O)n(Cc1ccccc1F)c(=O)n2C
5,660,Cc1n[nH]c(C)c1S(=O)(=O)N1CCC(c2nnc(-c3ccco3)s2)CC1
6,650,COCC1CCN(C(=O)COc2ccc(NC(=O)C3CC3)cn2)CC1
7,821,COc1ccc(-n2cc(C(=O)Nc3cnc4ccccc4c3)nn2)cc1
8,830,CCN(CC)C(=O)c1cc2c(s1)CCC(C(=O)NCc1ccc3c(c1)OCO3)C2 (stereo unspecified)
9,672,Nc1nc(SCc2ccccc2Cl)c2ncn(C3OC(CO)C(O)C3O)c2n1 (stereo unspecified)
10,709,O=C(Cn1nc2n(c1=O)CCCC2)NCCCc1ccccc1
11,844,Cc1nn2c(S(=O)(=O)NC3CCCCCC3)c(C)nc2s1
12,644,CN(C(=O)Cn1nc(Cc2ccncc2)c2ccccc2c1=O)c1cccc(Cl)c1
13,1180,O=C(c1cccs1)N1CC(Oc2cccc(-c3nc(-c4ccccc4)no3)c2)C1
14,1030,Cc1nn(-c2nc(-c3ccc(F)cc3)cs2)c(C)c1CC(=O)N1CCCC1
15,1180,Cc1ccc2c(c1)N(Cc1nc(-c3cccc(Br)c3)no1)C(=O)CO2
16,1200,CCSc1ccccc1C(=O)Nc1cccc2ccc(OC)nc12
17,700,O=C(c1ccc(Cn2cncn2)cc1)N1CCN(c2ccc(F)cc2)CC1
18,588,Nc1ncnc2sc3c(c12)CCCC3
19,756,CC1CCC(C(=O)Nc2cccc(-c3nnc4n3CCCC4)c2)CC1 (stereo unspecified)
20,885,Cc1ccccc1Cn1c(CN2CCC(C(=O)NC3CCCCCC3)CC2)cc2ccccc21
21,1030,COc1ccc2c(c1)C1CC(C)(O2)N(C)C(=O)C1S(=O)(=O)c1ccc(C)c(C)c1 (stereo unspecified)
22,674,CNC(=O)c1cc[nH]c1C1CCCN(C(=O)c2ccc(Br)o2)C1 (stereo unspecified)
